Assay results reported in patent US20090202645A1, “INTRASYNOVIAL FORMULATIONS OF STANOZOLOL” (ACME DRUGS S.R.L., priority 2008, published 2009).

What was measured:
healthy skin fibroblast = details: cited from earlier work
[1] = persistence in the joint after a single intrasynovial injection; type: in vivo
Source text: A single intrasynovial injection of said formulations allows the stanozolol to be brought up to and maintained at pharmacologically active concentrations in the joint for 6-7 days, a period which is long enough to produce evident clinical benefits and fully compatible with long-term treatments.

[2] = system: synovial fibroblasts from rheumatoid synovial tissue; details: cited from earlier work
[3] = persistence in synovial fluid of the typical intrasynovial preparation; type: in vivo; details: micronised stanozolol 5 mg, water for injectables to 1 ml, horses and humans
Method: An example of the formulation of a typical preparation containing stanozolol administrable by the intrasynovial route to horses and humans, which remains in the synovial fluid for 5-7 days, is set out below:
Active ingredient: micronised stanozolol (having a prevalent population of particles with a diameter of less than 20 μm) 5 mg;
Water for injectables q.s. to 1 ml.

solubility in water = type: physicochemical; details: crystalline substance
Source text: The formulations according to the invention of stanozolol in an aqueous carrier are therefore aqueous suspensions, and it is necessary to prevent the suspended crystals of the drug from causing mechanical lesions such as abrasions and erosions despite the pressures and friction generated by the movement of the joint on the surfaces of the cartilage and synovial membrane.

cartilage tissue = experiment: effect on tissue, especially cartilage tissue; details: unlike the majority of NSAIDs and anti-inflammatory corticosteroids

For `C[C@]12Cc3c[nH]nc3C[C@@H]1CC[C@@H]1[C@@H]2CC[C@@]2(C)[C@H]1CC[C@]2(C)O` [stanozolol], the “production of PGE2” value (healthy skin fibroblast) is given as “induces the production”, the production of collagenase (healthy skin fibroblast) is given as “induces the production” and the “time stanozolol is maintained at pharmacologically active concentrations in the joint” value [1] is given as 6-7 days. For the same molecule, the “effect on synovial fibroblasts” value [2] was “no effect”, the “time remaining in the synovial fluid” value [3] was 5 to 7 days and the solubility in water (solubility in water) was “insoluble in water”. The “degeneration of tissue, especially cartilage tissue” value (cartilage tissue) was “does not cause the degeneration of tissue, especially cartilage tissue, but regenerates it”.
